Laboratory results taken from ChEMBL document CHEMBL5579851, “Synthesis and antifungal evaluation of novel triazole derivatives bearing a pyrazole-methoxyl moiety” (Eur J Med Chem, 2024).
Converted amounts (≈) assume the structure as drawn.

Legend:
Assay type in all cases: functional
Saccharomyces cerevisiae [1] = test: Antifungal activity against recombinant Saccharomyces cerevisiae Y2711 overexpressing CnErg11 assessed as inhibition of fungal growth incubated for 48 hrs by CLSI based broth microdilution assay
Saccharomyces cerevisiae [2] = test: Antifungal activity against recombinant Saccharomyces cerevisiae Y2459 overexpressing CaErg11/CaCpr assessed as inhibition of fungal growth incubated for 48 hrs by CLSI based broth microdilution assay
Saccharomyces cerevisiae [3] = test: Antifungal activity against recombinant Saccharomyces cerevisiae Y525 overexpressing CaMdr1 assessed as inhibition of fungal growth incubated for 48 hrs by CLSI based broth microdilution assay
Saccharomyces cerevisiae [4] = test: Antifungal activity against recombinant Saccharomyces cerevisiae Y2767 overexpressing CauErg11 assessed as inhibition of fungal growth incubated for 48 hrs by CLSI based broth microdilution assay
[Candida] auris [5] = Antifungal activity against fluconazole-resistant Candida auris 919 assessed as inhibition of fungal growth incubated for 48 hrs by CLSI based broth microdilution assay; settings: Candidozyma auris
Saccharomyces cerevisiae [6] = test: Antifungal activity against recombinant Saccharomyces cerevisiae Y2765 overexpressing CauMdr1 assessed as inhibition of fungal growth incubated for 48 hrs by CLSI based broth microdilution assay
Saccharomyces cerevisiae [7] = test: Antifungal activity against recombinant Saccharomyces cerevisiae Y2300 overexpressing ScErg11 assessed as inhibition of fungal growth incubated for 48 hrs by CLSI based broth microdilution assay
Saccharomyces cerevisiae [8] = test: Antifungal activity against recombinant Saccharomyces cerevisiae Y2411 overexpressing ScErg11 assessed as inhibition of fungal growth incubated for 48 hrs by CLSI based broth microdilution assay
Saccharomyces cerevisiae [9] = test: Antifungal activity against recombinant Saccharomyces cerevisiae Y2766 overexpressing CauCdr1 assessed as inhibition of fungal growth incubated for 48 hrs by CLSI based broth microdilution assay
Saccharomyces cerevisiae [10] = test: Antifungal activity against recombinant Saccharomyces cerevisiae Y2374 overexpressing CgErg11 assessed as inhibition of fungal growth incubated for 48 hrs by CLSI based broth microdilution assay
Candida tropicalis = test: Antifungal activity against Candida tropicalis 8915 assessed as inhibition of fungal growth incubated for 48 hrs by CLSI based broth microdilution assay
Saccharomyces cerevisiae [11] = test: Antifungal activity against recombinant Saccharomyces cerevisiae Y2462 overexpressing ScErg11/ScNcp1 assessed as inhibition of fungal growth incubated for 48 hrs by CLSI based broth microdilution assay
Candida parapsilosis = test: Antifungal activity against Candida parapsilosis 22019 assessed as inhibition of fungal growth incubated for 48 hrs by CLSI based broth microdilution assay; settings: Lodderomyces parapsilosis
Saccharomyces cerevisiae [12] = test: Antifungal activity against recombinant Saccharomyces cerevisiae Y2721 overexpressing CpErg11/CpCpr assessed as inhibition of fungal growth incubated for 48 hrs by CLSI based broth microdilution assay
Cryptococcus neoformans = test: Antifungal activity against Cryptococcus neoformans 32609 assessed as inhibition of fungal growth incubated for 72 hrs by CLSI based broth microdilution assay
[Candida] auris [13] = Antifungal activity against fluconazole-resistant Candida auris 918 assessed as inhibition of fungal growth incubated for 48 hrs by CLSI based broth microdilution assay; settings: Candidozyma auris
Saccharomyces cerevisiae [14] = test: Antifungal activity against recombinant Saccharomyces cerevisiae Y570 overexpressing CaCdr1 assessed as inhibition of fungal growth incubated for 48 hrs by CLSI based broth microdilution assay
Candida albicans [15] = test: Antifungal activity against Candida albicans 10231 assessed as inhibition of fungal growth incubated for 48 hrs by CLSI based broth microdilution assay
Candida albicans [16] = test: Antifungal activity against fluconazole-resistant Candida albicans 901 assessed as inhibition of fungal growth incubated for 48 hrs by CLSI based broth microdilution assay
[Candida] auris [17] = Antifungal activity against fluconazole-resistant Candida auris 891 assessed as inhibition of fungal growth incubated for 48 hrs by CLSI based broth microdilution assay; settings: Candidozyma auris
Nakaseomyces glabratus = test: Antifungal activity against Candida glabrata 537 assessed as inhibition of fungal growth incubated for 48 hrs by CLSI based broth microdilution assay
Saccharomyces cerevisiae [18] = test: Antifungal activity against recombinant Saccharomyces cerevisiae Y2768 overexpressing CauErg11 T132F mutant assessed as inhibition of fungal growth incubated for 48 hrs by CLSI based broth microdilution assay
Saccharomyces cerevisiae [19] = test: Antifungal activity against recombinant Saccharomyces cerevisiae Y2716 overexpressing CpErg11 Y132F mutant/ CpCpr assessed as inhibition of fungal growth incubated for 48 hrs by CLSI based broth microdilution assay
Saccharomyces cerevisiae [20] = test: Antifungal activity against recombinant Saccharomyces cerevisiae Y2769 overexpressing CauErg11 K143R mutant assessed as inhibition of fungal growth incubated for 48 hrs by CLSI based broth microdilution assay
Saccharomyces cerevisiae [21] = test: Antifungal activity against recombinant Saccharomyces cerevisiae Y2513 overexpressing ScErg11 Y140H mutant assessed as inhibition of fungal growth incubated for 48 hrs by CLSI based broth microdilution assay
Candida albicans [22] = test: Antifungal activity against Candida albicans SC5314 assessed as inhibition of fungal growth incubated for 48 hrs by CLSI based broth microdilution assay
Saccharomyces cerevisiae [23] = test: Antifungal activity against recombinant Saccharomyces cerevisiae Y2301 overexpressing ScErg11 Y140F mutant assessed as inhibition of fungal growth incubated for 48 hrs by CLSI based broth microdilution assay
Pichia kudriavzevii = test: Antifungal activity against Candida krusei 4996 assessed as inhibition of fungal growth incubated for 48 hrs by CLSI based broth microdilution assay
Candida albicans [24] = test: Antifungal activity against fluconazole-resistant Candida albicans 904 assessed as inhibition of fungal growth incubated for 48 hrs by CLSI based broth microdilution assay

SMILES | MIC (Saccharomyces cerevisiae [1]) | MIC (Saccharomyces cerevisiae [2]) | MIC (Saccharomyces cerevisiae [3]) | MIC (Saccharomyces cerevisiae [4]) | MIC (Saccharomyces cerevisiae [6]) | MIC (Saccharomyces cerevisiae [7]) | MIC (Saccharomyces cerevisiae [8]) | MIC (Saccharomyces cerevisiae [9]) | MIC (Saccharomyces cerevisiae [10]) | MIC (Saccharomyces cerevisiae [11]) | MIC (Saccharomyces cerevisiae [12]) | MIC (Saccharomyces cerevisiae [14]) | MIC (Saccharomyces cerevisiae [18]) | MIC (Saccharomyces cerevisiae [19]) | MIC (Saccharomyces cerevisiae [20]) | MIC (Saccharomyces cerevisiae [21]) | MIC (Saccharomyces cerevisiae [23]) | other results
C[C@@H](c1nc(-c2ccc(C#N)cc2)cs1)[C@](O)(Cn1cncn1)c1ccc(F)cc1F [RAVUCONAZOLE] | 0.008 µg/mL | 0.008 µg/mL | 0.063 µg/mL | 0.016 µg/mL | 0.016 µg/mL | 0.008 µg/mL | 0.008 µg/mL | 2 µg/mL | 0.008 µg/mL | 0.008 µg/mL | 0.008 µg/mL | 16 µg/mL | 0.008 µg/mL | 0.008 µg/mL | 0.008 µg/mL | 0.008 µg/mL | 0.016 µg/mL | MIC ([Candida] auris [5]): 1 µg/mL (≈ 2.29 µM); MIC (Candida tropicalis): 8 µg/mL (≈ 18.3 µM); MIC (Candida parapsilosis): ≤ 0.125 µg/mL; MIC (Cryptococcus neoformans): ≤ 0.125 µg/mL; MIC ([Candida] auris [13]): 1 µg/mL (≈ 2.29 µM); MIC (Candida albicans [15]): ≤ 0.125 µg/mL; MIC (Candida albicans [16]): 16 µg/mL (≈ 36.6 µM); MIC ([Candida] auris [17]): 1 µg/mL (≈ 2.29 µM); MIC (Nakaseomyces glabratus): ≤ 0.125 µg/mL; MIC (Candida albicans [22]): ≤ 0.125 µg/mL; MIC (Pichia kudriavzevii): 1 µg/mL (≈ 2.29 µM); MIC (Candida albicans [24]): 16 µg/mL (≈ 36.6 µM)
CC[C@@H]([C@H](C)O)n1ncn(-c2ccc(N3CCN(c4ccc(OC[C@@H]5CO[C@@](Cn6cncn6)(c6ccc(F)cc6F)C5)cc4)CC3)cc2)c1=O [POSACONAZOLE] | 0.0313 µg/mL | 0.125 µg/mL | 0.125 µg/mL | 0.063 µg/mL | 0.125 µg/mL | 1 µg/mL | 0.5 µg/mL | 0.125 µg/mL | 0.125 µg/mL | 0.125 µg/mL | 0.25 µg/mL | 8 µg/mL | 1 µg/mL | 1 µg/mL | 1 µg/mL | 2 µg/mL | 2 µg/mL | 
